# Test results taken from patent publication US20250026742A1 (SUZHOU ARK BIOPHARMACEUTICAL CO., LTD., priority 2021, published 2025).
# Columns and labels:
# ATR kinase = ATR kinase (Homo sapiens (Human), UniProt Q13535); assay: ATR enzyme activity inhibition assay (HTRF); assay type: biochemical; conditions: p53 substrate, full-length ATR enzyme
# Protocol: The inhibitory ability to ATR kinase for selected compounds was tested by the HTRF (Homogeneous Time-Resolved Fluorescence). In the reaction system, After the substrate p53 is phosphorylated by ATR, the anti-phospho-p53-Eu that serves as an energy donor and specifically binds to the phosphorylation site on p53 is added. Then, the anti-GST-d2 as an energy acceptor that specifically binds to the GST tag carried on p53 is added. […] The IC50 of the sample to be tested can be obtained through graphing and calculation.
# Prepare various buffer systems required for the experiment: • 1. […] Prepare detection buffer: Dilute each of the anti-phospho-p53-Eu cryptate (Cisbio, Cat #61P08KA) and anti-GST-d2 (Cisbio, Cat #61GSTDLB) to 1 unit using HTRF detection buffer (Cisbio, Cat #62SDBRDF).
# Powdered compounds were dissolved in DMSO to from a stock solution at a concentration of 10 mM. The solution of compounds to be tested at a concentration of […] was performed a 3-fold dilution for 10 concentrations with DMSO. […] 5 μL of ATR was added to each well accordingly. Each well is incubated at 25° C. for 10 min, added with 5 μL of reaction substrate, incubated at 25° C. for 90 min and added with 10 μL of detection solution. […] The inhibition curves of the compounds were made by the four-parameter […] regression equation of XLfit software, and the inhibition rates of the compounds were calculated.
# [1] = system: human lung cancer NCI-H23 cells; assay: In vivo pharmacodynamics in the NCI-H23 subcutaneous graft tumor model; design: species or system CB.17/SCID mouse; conditions: for TGI (%) / Tumor change (%): 14 days after administration; for TGI (%) / Tumor change (%) / Tumor volume (mm^3) day 0 / Tumor volume (mm^3) day 14: 12.5 mg/kg PO QD + Cisplatin 1.5 mg/kg IP QW, NCI-H23 xenograft, CB.17/SCID mice; for body weight of mice after drug administration / decrease in tumor volume compared to the Cisplatin+VX-970 group: combination with Cisplatin; for body weight of mice after drug administration: no difference in body weight loss between the groups (FIG. 1); for Tumor volume (mm^3) day 0: day 0 (start of administration); for Tumor volume (mm^3) day 14: 2 weeks; for decrease in tumor volume compared to the Cisplatin+VX-970 group: p<0.05 in T-test (FIGS. 2 and 3)
# Protocol: • 1, cell culture: human lung cancer NCI-H23 cells (ATCC, Item No.: CRL-5800) are performed with an in vitro monolayer culture. […] Trypsin-EDTA was used for conventional digestion and treatment of passaging twice a week. When the cell saturation is […] and the number meets the requirement, the cells are collected, counted and inoculated. • 2, Animals: CB.17/SCID mouse, female, 6-8 weeks old, weighing 18-22 grams. A total of 84 mice are needed, which are provided by Beijing Viton Lihua Laboratory Animal Technology Co., Ltd. or equivalent qualified suppliers. • 3.
# • 4. Tumor inoculation: 0.2 mL (10×10^6 cells) of NCI-H23 cells (plus stromal gel, volume ratio 1:1) were subcutaneously inoculated into the right back of each mouse. Mice are grouped for drug administration when the average tumor volume reached about 200 mm^3. Animals were weighed before dosing and tumor volumes were measured. Groups were randomized according to tumor volume (randomized area group design).
# • 1 ? The experimental index is to examine whether the tumor growth is inhibited, delayed or cured. […] Calculation of Tumor change (%): Tumor change (%)=(average tumor volume at the end of administration of a treatment group−average tumor volume at the beginning of administration of a treatment group)/average tumor volume at the beginning of administration of a treatment group×100%. Tumor change (%): less than 0, non-growth of the tumor in the mice after the drug administration, and the existence of inhibition. • 6.
# Chain of ATR kinase (Q13535 whole entry): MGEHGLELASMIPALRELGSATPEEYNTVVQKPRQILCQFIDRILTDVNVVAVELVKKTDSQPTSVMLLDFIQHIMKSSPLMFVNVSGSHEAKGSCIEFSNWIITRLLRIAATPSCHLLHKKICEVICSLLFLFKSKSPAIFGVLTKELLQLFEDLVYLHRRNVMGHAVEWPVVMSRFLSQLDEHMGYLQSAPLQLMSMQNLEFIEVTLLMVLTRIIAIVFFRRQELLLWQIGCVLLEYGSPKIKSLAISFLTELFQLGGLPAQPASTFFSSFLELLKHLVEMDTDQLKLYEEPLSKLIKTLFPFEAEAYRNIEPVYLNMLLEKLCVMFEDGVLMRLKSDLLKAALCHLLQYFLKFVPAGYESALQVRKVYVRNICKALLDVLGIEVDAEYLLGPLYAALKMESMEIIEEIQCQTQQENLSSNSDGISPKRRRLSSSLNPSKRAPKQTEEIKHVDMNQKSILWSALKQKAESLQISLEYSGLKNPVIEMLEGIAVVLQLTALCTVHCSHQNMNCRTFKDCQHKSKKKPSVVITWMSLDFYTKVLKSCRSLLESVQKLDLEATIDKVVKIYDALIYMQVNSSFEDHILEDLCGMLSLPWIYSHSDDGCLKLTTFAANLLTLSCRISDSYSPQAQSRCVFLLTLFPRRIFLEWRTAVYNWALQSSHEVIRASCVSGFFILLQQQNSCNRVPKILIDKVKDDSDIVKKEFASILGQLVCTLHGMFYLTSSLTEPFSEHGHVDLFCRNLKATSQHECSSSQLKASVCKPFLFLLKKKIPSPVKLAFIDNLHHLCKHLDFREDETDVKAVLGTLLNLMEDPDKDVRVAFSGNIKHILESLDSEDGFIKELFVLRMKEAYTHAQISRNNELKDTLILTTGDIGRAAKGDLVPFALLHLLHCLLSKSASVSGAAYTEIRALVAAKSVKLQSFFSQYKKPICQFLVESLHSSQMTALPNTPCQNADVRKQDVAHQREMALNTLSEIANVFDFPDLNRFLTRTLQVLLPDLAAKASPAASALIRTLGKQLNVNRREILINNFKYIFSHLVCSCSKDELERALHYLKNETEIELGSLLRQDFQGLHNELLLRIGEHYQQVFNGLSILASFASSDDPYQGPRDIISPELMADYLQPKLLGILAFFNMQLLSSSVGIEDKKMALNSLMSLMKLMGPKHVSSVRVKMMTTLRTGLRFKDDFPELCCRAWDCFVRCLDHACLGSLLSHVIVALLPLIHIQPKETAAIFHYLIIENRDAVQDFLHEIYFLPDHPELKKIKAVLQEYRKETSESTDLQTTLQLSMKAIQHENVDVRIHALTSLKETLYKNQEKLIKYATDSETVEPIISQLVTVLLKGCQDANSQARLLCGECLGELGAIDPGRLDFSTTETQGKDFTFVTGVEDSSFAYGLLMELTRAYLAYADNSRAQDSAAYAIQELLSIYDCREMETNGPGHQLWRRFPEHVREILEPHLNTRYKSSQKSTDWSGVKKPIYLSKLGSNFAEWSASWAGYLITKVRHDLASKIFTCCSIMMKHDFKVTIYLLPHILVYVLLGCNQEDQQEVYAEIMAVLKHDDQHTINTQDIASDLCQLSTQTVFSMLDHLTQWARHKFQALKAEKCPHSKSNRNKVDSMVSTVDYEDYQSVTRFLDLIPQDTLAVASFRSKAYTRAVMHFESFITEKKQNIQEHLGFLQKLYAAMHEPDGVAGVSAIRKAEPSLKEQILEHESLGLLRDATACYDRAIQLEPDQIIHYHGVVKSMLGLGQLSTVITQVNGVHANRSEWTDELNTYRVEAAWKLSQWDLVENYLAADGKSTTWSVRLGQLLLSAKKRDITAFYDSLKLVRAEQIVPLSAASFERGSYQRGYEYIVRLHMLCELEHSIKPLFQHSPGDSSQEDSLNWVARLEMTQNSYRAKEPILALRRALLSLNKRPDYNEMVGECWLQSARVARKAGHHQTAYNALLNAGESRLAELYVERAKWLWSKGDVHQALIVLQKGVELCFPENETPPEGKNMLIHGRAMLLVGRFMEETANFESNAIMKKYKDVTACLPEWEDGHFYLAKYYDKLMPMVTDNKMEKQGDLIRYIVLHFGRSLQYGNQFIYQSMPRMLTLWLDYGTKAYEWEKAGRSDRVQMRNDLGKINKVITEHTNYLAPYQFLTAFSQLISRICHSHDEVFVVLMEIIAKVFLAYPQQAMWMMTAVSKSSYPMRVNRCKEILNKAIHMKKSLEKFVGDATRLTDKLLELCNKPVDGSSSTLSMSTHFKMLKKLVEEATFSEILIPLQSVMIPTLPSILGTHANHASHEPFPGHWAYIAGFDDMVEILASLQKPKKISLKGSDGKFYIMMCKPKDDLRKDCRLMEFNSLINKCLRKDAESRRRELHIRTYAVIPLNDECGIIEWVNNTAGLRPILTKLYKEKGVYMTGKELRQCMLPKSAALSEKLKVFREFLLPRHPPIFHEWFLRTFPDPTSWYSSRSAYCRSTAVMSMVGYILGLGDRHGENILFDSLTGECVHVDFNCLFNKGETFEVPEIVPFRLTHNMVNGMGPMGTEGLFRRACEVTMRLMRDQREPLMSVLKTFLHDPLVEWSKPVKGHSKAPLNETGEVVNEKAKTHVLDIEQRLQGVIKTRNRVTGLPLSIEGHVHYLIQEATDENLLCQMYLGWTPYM
# Chain of ATR kinase (Q8WXE1 whole entry partner): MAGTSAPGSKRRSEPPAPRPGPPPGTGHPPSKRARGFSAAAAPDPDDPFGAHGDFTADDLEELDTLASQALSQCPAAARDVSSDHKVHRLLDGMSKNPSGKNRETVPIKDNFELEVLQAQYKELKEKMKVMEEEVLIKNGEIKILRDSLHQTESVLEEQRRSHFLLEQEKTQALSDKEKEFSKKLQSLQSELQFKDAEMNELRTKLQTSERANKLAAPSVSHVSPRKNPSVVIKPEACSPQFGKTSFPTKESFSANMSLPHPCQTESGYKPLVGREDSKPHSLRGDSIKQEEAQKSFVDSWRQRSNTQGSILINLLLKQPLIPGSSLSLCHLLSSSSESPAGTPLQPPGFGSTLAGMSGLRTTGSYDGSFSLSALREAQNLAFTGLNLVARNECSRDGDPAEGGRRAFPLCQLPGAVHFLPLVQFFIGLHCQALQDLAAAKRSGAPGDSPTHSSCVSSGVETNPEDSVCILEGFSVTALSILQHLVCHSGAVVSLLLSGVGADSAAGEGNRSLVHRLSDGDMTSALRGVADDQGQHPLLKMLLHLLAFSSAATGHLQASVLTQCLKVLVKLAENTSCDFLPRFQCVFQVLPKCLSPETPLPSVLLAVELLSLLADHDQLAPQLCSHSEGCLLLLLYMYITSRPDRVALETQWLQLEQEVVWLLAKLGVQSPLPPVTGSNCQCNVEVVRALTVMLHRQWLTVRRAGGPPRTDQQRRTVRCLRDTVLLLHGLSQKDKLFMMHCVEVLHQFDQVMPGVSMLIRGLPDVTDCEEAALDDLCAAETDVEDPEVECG
compound,measurement,setting,value
CN1CCC(NCc2ccc(-c3nnc(-c4nc(-c5ccc6c(c5)C(F)C(C)(C)S6(=O)=O)cnc4N)o3)cc2)CC1 (centres unmarked) [Example 36],IC50,ATR kinase,0.57 nM
"CNCc1ccc(-c2nnc(-c3nc(-c4ccc5c(c4)C(F)C(C)(C)S5(=O)=O)cnc3N)s2)cc1 (centres unmarked) [Example 37, 5-(5-amino-6-(5-(4-((methylamino)methyl)phenyl)-1,3,4-thiadiazol-2-yl)pyrazin-2-yl)-3-fluoro-2,2-dimethyl-2,3-dihydrobenzo[b]thiophene 1,1-dioxide]",IC50,ATR kinase,0.77 nM
"CNCc1ccc(-c2cc(-c3nc(-c4ccc(S(=O)(=O)C(C)C)cc4)cnc3N)on2)cc1 [VX-970, Berzosertib, reference compound]",TGI (%),[1],128%
same,Tumor change (%),[1],−12%
same,Tumor change (%),[1]; listed as VX970,−13%
same,body weight of mice after drug administration,[1],decrease in body weight
same,Tumor volume (mm^3) day 0,[1],266 mm^3
same,Tumor volume (mm^3) day 14,[1],231 mm^3
"(R)-5-(5-amino-6-(3-(4-((methylamino)methyl)phenyl)isoxazol-5-yl)pyrazin-2-yl)-3-fluoro-2,2-dimethyl-2,3-dihydrobenzo[b]thiophene 1,1-dioxide or (S)-5-(5-amino-6-(3-(4-((methylamino)methyl)phenyl)isoxazol-5-yl)pyrazin-2-yl)-3-fluoro-2,2-dimethyl-2,3-dihydrobenzo[b]thiophene 1,1-dioxide [Example 35-1 or 35-2]",IC50,ATR kinase,0.41 nM
"(R)-5-(5-amino-6-(3-(4-((methylamino)methyl)phenyl)isoxazol-5-yl-4-deuterium)pyrazin-2-yl)-3-fluoro-2,2-dimethyl-2,3-dihydrobenzo[b]thiophene 1,1-dioxide or (S)-5-(5-amino-6-(3-(4-((methylamino)methyl)phenyl)isoxazol-5-yl-4-deuterium)pyrazin-2-yl)-3-fluoro-2,2-dimethyl-2,3-dihydrobenzo[b]thiophene 1,1-dioxide [Example 38-1 or 38-2]",IC50,ATR kinase,0.75 nM
same,TGI (%),[1],159%
same,Tumor change (%),[1],−29%
same,body weight of mice after drug administration,[1],decrease in body weight
same,decrease in tumor volume compared to the Cisplatin+VX-970 group,[1],more obvious decrease in tumor volume
same,Tumor volume (mm^3) day 0,[1],252 mm^3
same,Tumor volume (mm^3) day 14,[1],180 mm^3
"(R)-5-(5-amino-6-(5-(4-((methylamino)methylene)phenyl)-1,3,4-oxadiazol-2-yl)pyrazin-2-yl)-3-fluoro-2,2-dimethyl-2,3-dihydrobenzo[b]thiophene 1,1-dioxide or (S)-5-(5-amino-6-(5-(4-((methylamino)methylene)phenyl)-1,3,4-oxadiazol-2-yl)pyrazin-2-yl)-3-fluoro-2,2-dimethyl-2,3-dihydrobenzo[b]thiophene 1,1-dioxide [Example 33-1 or 33-2]",IC50,ATR kinase,0.83 nM
same,TGI (%),[1],245%
same,Tumor change (%),[1],−66%
same,body weight of mice after drug administration,[1],decrease in body weight
same,decrease in tumor volume compared to the Cisplatin+VX-970 group,[1],more obvious decrease in tumor volume
same,Tumor volume (mm^3) day 0,[1],267 mm^3
same,Tumor volume (mm^3) day 14,[1],92 mm^3
